Measurements: patent US20200237871A1, “METHODS FOR MITIGATING LIVER INJURY AND PROMOTING LIVER HYPERTROPHY, REGENERATION AND CELL ENGRAFTMENT IN CONJUNCTION WITH RADIATION AND/OR RADIOMIMETIC TREATMENTS” (Janssen Pharmaceutica NV, priority 2019, published 2020)

Assays:
[1] = system: DPPIV KO mice; assay: Engraftment of transplanted LSECs and hepatocytes by DPPIV immunostaining after HIR (Example 7); format: in vivo, mouse; details: Study A; 2 months after HIR; 50 Gy; LSECs 4 or 5 days after HIR; 300 μg/kg intraperitoneally 10 minutes after LSEC transplantation
Experimental: 8-12-week-old male Di-peptyl peptidase IV knockout (Dppiv^−/−) mice and 8-12-week-old male C57BL/6 mice were used in this study.
The methods were identical to Experiment 5 as described above; including the preparation of test articles (solutions of RWJ-800088), isolation and transplant of LSECs, and Hepatic irradiation. In addition, Romiplostim was purchased from pharmacy and came in 250 μg powder. It was reconstituted per manufacturers description using solvent for solution for injection. After reconstitution, a deliverable volume of 0.5 mL solution contained 250 μg of romiplostim (500 μg/mL).
Animals were weighed in the beginning of the experiment.
The mice were transplanted with DPPIV^+ 5×10^5 liver sinusoidal endothelial cells (LSECs) intrasplenically 4 or 5 days later. The mice were then injected with 300 μg/kg of RWJ-800088 or Romiplostim intraperitoneally 10 minutes after LSEC transplantation as shown in Table 7.
The mice were then monitored until they made a full recovery and returned to the cage. The mice were followed for 2 and 5 months and necropsied. The liver was excised and prepared for the frozen section. The immunostaining of DPPIV activity was performed to examine the repopulation of the transplanted DPPIV^+ cells in the liver. […]

[2] = system: DPPIV−/− knockout mice; assay: LSEC engraftment/repopulation of irradiated liver by DPPIV staining (Examples 2 and 3); format: in vivo, mouse; details: targeted liver irradiation (50 Gy)
Experimental: 8-12-week-old male and female Di-peptyl peptidase IV (DPPIV) −/− knockout mice and 8-12-week-old male and female C57Bl6 mice were used in this study. Animals were weighed in the beginning of the experiment and before tissue collection. All animals were housed in the Institute for Animal Studies at Albert Einstein College of medicine and fed regular rodent chow. All experiments were performed to according to protocols approved by Institutional Animal Care and Use Committee at Albert Einstein College of Medicine. Animals were made cirrhotic using CCl4 administration (intraperitoneal [IP] injections twice a week for at least 11 weeks).
Image-guided external beam irradiation was performed using a small animal radiation research platform (SARRP, Xstrahl Inc., Suwanee, Ga.). Mice were given gastrografin contrast through gavage to improve visualization of the gastrointestinal (GI) tract. After approximately 2 minutes, mice were positioned on a tubular couch and anesthetized with ˜2% Isofluorane (Isothesia, USP) in 2 L/min pure oxygen. A cone-beam computed tomography (CBCT) scan was acquired and a treatment plan irradiating the median lobe and right lobe was generated using the MuriPlan software. […] Within the targeted lobes, the position of the isocenter was chosen to minimize irradiation of the GI tract, spine, and heart (the maximum dose to these organs was kept below 10 Gy). Targets were irradiated with 50 Gy X-rays at 220 kVp energy and 13 mA tube current (dose rate of 2.4-2.5 Gy/min) using a 1 mm copper filter for beam hardening.
TPOm was diluted in sterile PBS to a 10 mg/ml stock. The stock was stored at −20° C. and allowed to come to room temperature prior to administration. TPOm was administered as a single dose (300 μg/kg) via subcutaneous injection 10 minutes after the transplant procedure.
DPPIV was selected as a marker for engraftment of exogenous LSECs in the DPPIV (−/−) animals. […] Slide imaging was done using a Perkin Elmer P250 High Capacity Slide Scanner.
LSECs were isolated from the single-cell suspension using CD146 microbeads (Miltenyi Biotec GmbH #130-092-007).
Following isolation of LSECs, 500×10^5 LSECs are transplanted via intrasplenic injection into healthy adult mice anesthetized with Isoflurane (Isothesia, USP) 24 hrs post HIR. Buprenorphine is given post-op as an analgesic.
To test the efficacy of TPOm as an agent that can cause LSEC engraftment, DPPIV−/− knockout mice received 50GY hepatic irradiation (HIR) to the median and right lobes of the liver using external-beam CT-guided x-ray irradiation, and LSECs that express DPPIV (FIG. 2A).
The methods were identical to those described above with the exception that the LSEC transplant was administered 4-5 days post irradiation and the TPOm or Romiplostim were administered approximately 10 minutes post LSEC transplant.

romiplostim [reference compound]
repopulation of LSECs in the irradiated liver tissue (DPPIV immunostaining) [1]: repopulation of LSECs in the irradiated liver tissue was observed
Engraftment when LSEC transplant is administered 24 hours post irradiation [2]: Yes
Engraftment when LSEC transplant is administered 4-5 days post irradiation ([2]; drug approximately 10 minutes post LSEC transplant): Yes
